Laboratory results published in patent US20220389007A1, “INHIBITORS OF HUMAN IMMUNODEFICIENCY VIRUS REPLICATION” (VIIV HEALTHCARE UK (No. 5) LIMITED, priority 2019, published 2022).

Key:
[1] = Compound cytotoxicity, XTT-based colorimetric assay; type: cell-based; settings: human; uninfected MT2 cells, day 4, XTT assay
Method in brief: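 Run under the antiviral-assay protocol but without virus. Viability was read on day 4 and CC50 values were derived from the readout.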

[2] = tested on: recombinant NL4-3 virus; assay: HIV cell culture assay (antiviral activity, luciferase readout); type: cell-based; settings: Human immunodeficiency virus 1, NL43, MT2, MT-2 cells infected for 4-5 days with recombinant NL4-3 virus carrying Renilla luciferase
Method in brief: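 MT-2 cells infected for 4-5 days with NL4-3 reference virus carrying Renilla luciferase in place of part of nef, in presence of serial compound dilutions. Luciferase read with live-cell substrate; EC50 from median effect equation fit.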

Row | Structure (SMILES) | CC50 at 4 day [1] [nM] | EC50 [2] [nM]
1 | Cn1nc(NS(C)(=O)=O)c2c(Cl)ccc(-n3c([C@H](Cc4cc(F)cc(F)c4)NC(=O)Cn4nc(C(F)F)c5c4C(F)(F)[C@@H]4C[C@H]54)nc4nc(-c5ccc6ncsc6c5)ccc4c3=O)c21 (atropisomer, axis not shown; (P)) [Example 71, N-((S)-1-(7-(benzo[d]thiazol-6-yl)-(3P)-3-(4-chloro-1-methyl-3-(methylsulfonamido)-1H-indazol-7-yl)-4-oxo-3,4-dihydropyrido[2,3-d]pyrimidin-2-yl)-2-(3,5-difluorophenyl)ethyl)-2-((3bS,4aR)-3-(difluoromethyl)-5,5-difluoro-3b,4,4a,5-tetrahydro-1H-cyclopropa[3,4]cyclopenta[1,2-c]pyrazol-1-yl)acetamide] | > 100 | 0.097
2 | Cn1nc(NS(C)(=O)=O)c2c(Cl)ccc(-n3c([C@H](Cc4cc(F)cc(F)c4)NC(=O)Cn4nc(C(F)F)c5c4C(F)(F)[C@@H]4C[C@H]54)nc4nc(-c5ccn(CC(F)(F)F)n5)ccc4c3=O)c21 (atropisomer, axis not shown; (P)) [Example 73, N-((S)-1-((3P)-3-(4-chloro-1-methyl-3-(methylsulfonamido)-1H-indazol-7-yl)-4-oxo-7-(1-(2,2,2-trifluoroethyl)-1H-pyrazol-3-yl)-3,4-dihydropyrido[2,3-d]pyrimidin-2-yl)-2-(3,5-difluorophenyl)ethyl)-2-((3bS,4aR)-3-(difluoromethyl)-5,5-difluoro-3b,4,4a,5-tetrahydro-1H-cyclopropa[3,4]cyclopenta[1,2-c]pyrazol-1-yl)acetamide] | > 100 | 0.029
3 | Cc1cc(-c2ccc3c(=O)n(-c4ccc(Cl)c5c(NS(C)(=O)=O)nn(C)c45)c([C@H](Cc4cc(F)cc(F)c4)NC(=O)Cn4nc(C(F)F)c5c4C(F)(F)[C@@H]4C[C@H]54)nc3n2)n(CC(C)(F)F)n1 (single isomer, unassigned) [Example 97] | > 100 | 12
4 | Cc1cc(-c2ccc3c(=O)n(-c4ccc(Cl)c5c(NS(C)(=O)=O)nn(C)c45)c([C@H](Cc4cc(F)cc(F)c4)NC(=O)Cn4nc(C(F)F)c5c4C(F)(F)[C@@H]4C[C@H]54)nc3n2)n[nH]1 (atropisomer, axis not shown; (P)) [Example 98, N-((S)-1-((3P)-3-(4-chloro-1-methyl-3-(methylsulfonamido)-1H-indazol-7-yl)-7-(5-methyl-1H-pyrazol-3-yl)-4-oxo-3,4-dihydropyrido[2,3-d]pyrimidin-2-yl)-2-(3,5-difluorophenyl)ethyl)-2-((3bS,4aR)-3-(difluoromethyl)-5,5-difluoro-3b,4,4a,5-tetrahydro-1H-cyclopropa[3,4]cyclopenta[1,2-c]pyrazol-1-yl)acetamide] | > 100 | 0.2
5 | COc1cc(-c2ccc3c(=O)n(-c4ccc(Cl)c5c(NS(C)(=O)=O)nn(C)c45)c([C@H](Cc4cc(F)cc(F)c4)NC(=O)Cn4nc(C(F)F)c5c4C(F)(F)[C@@H]4C[C@H]54)nc3n2)ccn1 (atropisomer, axis not shown; (P)) [Example 59, N-((S)-1-((3P)-3-(4-chloro-1-methyl-3-(methylsulfonamido)-1H-indazol-7-yl)-7-(2-methoxypyridin-4-yl)-4-oxo-3,4-dihydropyrido[2,3-d]pyrimidin-2-yl)-2-(3,5-difluorophenyl)ethyl)-2-((3bS,4aR)-3-(difluoromethyl)-5,5-difluoro-3b,4,4a,5-tetrahydro-1H-cyclopropa[3,4]cyclopenta[1,2-c]pyrazol-1-yl)acetamide] | > 100 | 0.05
6 | Cc1cc(C)nc(-c2ccc3c(=O)n(-c4ccc(Cl)c5c(NS(C)(=O)=O)nn(C)c45)c([C@H](Cc4cc(F)cc(F)c4)NC(=O)Cn4nc(C(F)F)c5c4C(F)(F)[C@@H]4C[C@H]54)nc3n2)n1 (atropisomer, axis not shown; (P)) [Example 11, N-((S)-1-((3P)-3-(4-chloro-1-methyl-3-(methylsulfonamido)-1H-indazol-7-yl)-7-(4,6-dimethylpyrimidin-2-yl)-4-oxo-3,4-dihydropyrido[2,3-d]pyrimidin-2-yl)-2-(3,5-difluorophenyl)ethyl)-2-((3bS,4aR)-3-(difluoromethyl)-5,5-difluoro-3b,4,4a,5-tetrahydro-1H-cyclopropa[3,4]cyclopenta[1,2-c]pyrazol-1-yl)acetamide] | > 100 | 0.036
7 | Cn1nc(NS(C)(=O)=O)c2c(Cl)ccc(-n3c([C@H](Cc4cc(F)cc(F)c4)NC(=O)Cn4nc(C(F)F)c5c4C(F)(F)[C@@H]4C[C@H]54)nc4ncc(-c5nccc(C(F)F)n5)cc4c3=O)c21 (atropisomer, axis not shown; (P)) [Example 2, N-((S)-1-((3P)-3-(4-chloro-1-methyl-3-(methylsulfonamido)-1H-indazol-7-yl)-6-(4-(difluoromethyl)pyrimidin-2-yl)-4-oxo-3,4-dihydropyrido[2,3-d]pyrimidin-2-yl)-2-(3,5-difluorophenyl)ethyl)-2-((3bS,4aR)-3-(difluoromethyl)-5,5-difluoro-3b,4,4a,5-tetrahydro-1H-cyclopropa[3,4]cyclopenta[1,2-c]pyrazol-1-yl)acetamide] | > 100 | 0.031
8 | Cn1nc(NS(C)(=O)=O)c2c(Cl)ccc(-n3c([C@H](Cc4cc(F)cc(F)c4)NC(=O)Cn4nc(C(F)F)c5c4C(F)(F)[C@@H]4C[C@H]54)nc4nc(-c5ccn(CC(F)F)n5)ccc4c3=O)c21 (atropisomer, axis not shown; (P)) [Example 79, N-((S)-1-((3P)-3-(4-chloro-1-methyl-3-(methylsulfonamido)-1H-indazol-7-yl)-7-(1-(2,2-difluoroethyl)-1H-pyrazol-3-yl)-4-oxo-3,4-dihydropyrido[2,3-d]pyrimidin-2-yl)-2-(3,5-difluorophenyl)ethyl)-2-((3bS,4aR)-3-(difluoromethyl)-5,5-difluoro-3b,4,4a,5-tetrahydro-1H-cyclopropa[3,4]cyclopenta[1,2-c]pyrazol-1-yl)acetamide] | > 100 | 0.047
9 | Cn1nc(NS(C)(=O)=O)c2c(Cl)ccc(-n3c([C@H](Cc4cc(F)cc(F)c4)NC(=O)Cn4nc(C(F)F)c5c4C(F)(F)[C@@H]4C[C@H]54)nc4nc(-c5ncccn5)ccc4c3=O)c21 (atropisomer, axis not shown; (P)) [Example 47, N-((S)-1-((3P)-3-(4-chloro-1-methyl-3-(methylsulfonamido)-1H-indazol-7-yl)-4-oxo-7-(pyrimidin-2-yl)-3,4-dihydropyrido[2,3-d]pyrimidin-2-yl)-2-(3,5-difluorophenyl)ethyl)-2-((3bS,4aR)-3-(difluoromethyl)-5,5-difluoro-3b,4,4a,5-tetrahydro-1H-cyclopropa[3,4]cyclopenta[1,2-c]pyrazol-1-yl)acetamide] | > 100 | 0.067
10 | Cn1nc(NS(C)(=O)=O)c2c(Cl)ccc(-n3c([C@H](Cc4cc(F)cc(F)c4)NC(=O)Cn4nc(C(F)F)c5c4C(F)(F)[C@@H]4C[C@H]54)nc4nc(-c5cccc(C(F)F)n5)ccc4c3=O)c21 (atropisomer, axis not shown; (P)) [Example 38, N-((S)-1-((3P)-3-(4-chloro-1-methyl-3-(methylsulfonamido)-1H-indazol-7-yl)-7-(6-(difluoromethyl)pyridin-2-yl)-4-oxo-3,4-dihydropyrido[2,3-d]pyrimidin-2-yl)-2-(3,5-difluorophenyl)ethyl)-2-((3bS,4aR)-3-(difluoromethyl)-5,5-difluoro-3b,4,4a,5-tetrahydro-1H-cyclopropa[3,4]cyclopenta[1,2-c]pyrazol-1-yl)acetamide] | > 100 | 0.051
11 | Cn1nc(NS(C)(=O)=O)c2c(Cl)ccc(-n3c([C@H](Cc4cc(F)cc(F)c4)NC(=O)Cn4nc(C(F)F)c5c4C(F)(F)[C@@H]4C[C@H]54)nc4nc(-c5ccc6scnc6c5)ccc4c3=O)c21 (atropisomer, axis not shown; (P)) [Example 72, N-((S)-1-(7-(benzo[d]thiazol-5-yl)-(3P)-3-(4-chloro-1-methyl-3-(methylsulfonamido)-1H-indazol-7-yl)-4-oxo-3,4-dihydropyrido[2,3-d]pyrimidin-2-yl)-2-(3,5-difluorophenyl)ethyl)-2-((3bS,4aR)-3-(difluoromethyl)-5,5-difluoro-3b,4,4a,5-tetrahydro-1H-cyclopropa[3,4]cyclopenta[1,2-c]pyrazol-1-yl)acetamide] | > 100 | 0.11
12 | Cn1nc(NS(C)(=O)=O)c2c(Cl)ccc(-n3c([C@H](Cc4cc(F)cc(F)c4)NC(=O)Cn4nc(C(F)F)c5c4C(F)(F)[C@@H]4C[C@H]54)nc4nc(-c5ccnc(C(F)(F)F)n5)ccc4c3=O)c21 (atropisomer, axis not shown; (P)) [Example 37, N-((S)-1-((3P)-3-(4-chloro-1-methyl-3-(methylsulfonamido)-1H-indazol-7-yl)-4-oxo-7-(2-(trifluoromethyl)pyrimidin-4-yl)-3,4-dihydropyrido[2,3-d]pyrimidin-2-yl)-2-(3,5-difluorophenyl)ethyl)-2-((3bS,4aR)-3-(difluoromethyl)-5,5-difluoro-3b,4,4a,5-tetrahydro-1H-cyclopropa[3,4]cyclopenta[1,2-c]pyrazol-1-yl)acetamide] | > 100 | 0.11
13 | Cc1nccnc1-c1ccc2c(=O)n(-c3ccc(Cl)c4c(NS(C)(=O)=O)nn(C)c34)c([C@H](Cc3cc(F)cc(F)c3)NC(=O)Cn3nc(C(F)F)c4c3C(F)(F)[C@@H]3C[C@H]43)nc2n1 (atropisomer, axis not shown; (P)) [Example 7, N-((S)-1-((3P)-3-(4-chloro-1-methyl-3-(methylsulfonamido)-1H-indazol-7-yl)-7-(3-methylpyrazin-2-yl)-4-oxo-3,4-dihydropyrido[2,3-d]pyrimidin-2-yl)-2-(3,5-difluorophenyl)ethyl)-2-((3bS,4aR)-3-(difluoromethyl)-5,5-difluoro-3b,4,4a,5-tetrahydro-1H-cyclopropa[3,4]cyclopenta[1,2-c]pyrazol-1-yl)acetamide] | > 100 | 0.02
